ChEMBL document CHEMBL2321759, “A new target for an old drug: identifying mitoxantrone as a nanomolar inhibitor of PIM1 kinase via kinome-wide selectivity modeling” (J Med Chem, 2013)
pIC50: −log10 of the molar value. Structures can show the parent of a compound that is named as a salt. Active and inactive are the calls of the source. The rule behind the calls is not given here.

How the values were obtained:
[1] = molecular target: Serine/threonine-protein kinase Chk2 (Homo sapiens) (UniProt O96017); assay: Inhibition of CHK2 (unknown origin) using [gamma33P]ATP assessed as residual activity at 1 uM after 120 mins by radiometric assay
MV4-11 [2] = assay: Effect on total PIM1 level in human MV411 cells at 10 to 100 nM after 12 hrs by Western blotting analysis; format: functional, cell-based
[3] = molecular target: T1, Serine/threonine-protein kinase pim-1 (Homo sapiens, UniProt P11309); assay: Inhibition of PIM1-mediated BAD phosphorylation in human MV411 cells at 100 nM after 12 hrs by Western blotting analysis; format: cell-based; details: MV4-11
Target sequence in this assay (P11309 whole entry, looked up): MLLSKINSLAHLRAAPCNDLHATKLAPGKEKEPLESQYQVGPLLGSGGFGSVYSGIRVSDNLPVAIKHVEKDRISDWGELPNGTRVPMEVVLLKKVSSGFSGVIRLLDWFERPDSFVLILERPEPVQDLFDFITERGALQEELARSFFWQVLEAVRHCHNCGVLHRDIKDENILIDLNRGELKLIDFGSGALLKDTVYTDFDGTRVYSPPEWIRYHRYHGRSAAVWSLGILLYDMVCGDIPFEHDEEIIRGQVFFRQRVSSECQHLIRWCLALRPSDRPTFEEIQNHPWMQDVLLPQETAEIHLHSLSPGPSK

[4] = molecular target: RAC-alpha serine/threonine-protein kinase (Homo sapiens) (UniProt P31749); assay: Inhibition of AKT1 (unknown origin) using [gamma33P]ATP assessed as residual activity at 1 uM after 120 mins by radiometric assay
[5] = molecular target: T1, Serine/threonine-protein kinase pim-1; assay: Inhibition of PIM1-mediated BAD phosphorylation in human MV411 cells after 12 hrs by Western blotting analysis; format: cell-based; details: MV4-11
Target sequence in this assay (P11309 whole entry, looked up): as above

[6] = molecular target: T2, Tyrosine-protein kinase BTK (Homo sapiens, UniProt Q06187); assay: Inhibition of BTK (unknown origin) using [gamma33P]ATP assessed as residual activity at 1 uM after 120 mins by radiometric assay
[7] = molecular target: T1, Serine/threonine-protein kinase pim-1; assay: Inhibition of PIM1 (unknown origin) using [gamma33P]ATP assessed as residual activity at 1 uM after 120 mins by radiometric assayATP
Target sequence in this assay (P11309 whole entry, looked up): as above

[8] = molecular target: Casein kinase II subunit alpha' (Homo sapiens) (UniProt P19784); assay: Inhibition of CK2alpha2 (unknown origin) using [gamma33P]ATP assessed as residual activity at 1 uM after 120 mins by radiometric assay
[9] = molecular target: T1, Serine/threonine-protein kinase pim-1; assay: Inhibition of PIM1-mediated BAD phosphorylation in human K562 cells after 12 hrs by Western blotting analysis; format: cell-based
Target sequence in this assay (P11309 whole entry, looked up): as above

MV4-11 [10] = assay: Effect on total BAD level in human MV411 cells at 10 to 100 nM after 12 hrs by Western blotting analysis; format: functional, cell-based
[11] = molecular target: T1, Serine/threonine-protein kinase pim-1; assay: Inhibition of PIM1-mediated BAD phosphorylation in human K562 cells at 0.1 to 30 uM after 12 hrs by Western blotting analysis; format: cell-based
Target sequence in this assay (P11309 whole entry, looked up): as above

[12] = molecular target: T1, Serine/threonine-protein kinase pim-1; assay: Inhibition of recombinant PIM1 (unknown origin) expressed in Escherichia coli BL21(DE3) after 1 hr by HTRF assay
Target sequence in this assay (P11309 whole entry): as the sequence (P11309 whole entry, looked up) above

[13] = molecular target: T2, Tyrosine-protein kinase BTK; assay: Inhibition of BTK (unknown origin)
Casein kinase 2 = Casein kinase 2 (Homo sapiens, UniProt P67870+P68400+P19784+Q8NEV1); assay: Inhibition of human recombinant casein kinase 2 using [gamma-32P] ATP; format: protein assay
[14] = Inhibition of Mycobacterium tuberculosis protein kinase B
[15] = molecular target: Platelet-derived growth factor receptor beta (Mus musculus, UniProt P05622); assay: Inhibition of mouse PDGFRbeta expressed in SF9 insect cells by TR-FRET assay
Chain of Platelet-derived growth factor receptor beta (P05622 whole entry): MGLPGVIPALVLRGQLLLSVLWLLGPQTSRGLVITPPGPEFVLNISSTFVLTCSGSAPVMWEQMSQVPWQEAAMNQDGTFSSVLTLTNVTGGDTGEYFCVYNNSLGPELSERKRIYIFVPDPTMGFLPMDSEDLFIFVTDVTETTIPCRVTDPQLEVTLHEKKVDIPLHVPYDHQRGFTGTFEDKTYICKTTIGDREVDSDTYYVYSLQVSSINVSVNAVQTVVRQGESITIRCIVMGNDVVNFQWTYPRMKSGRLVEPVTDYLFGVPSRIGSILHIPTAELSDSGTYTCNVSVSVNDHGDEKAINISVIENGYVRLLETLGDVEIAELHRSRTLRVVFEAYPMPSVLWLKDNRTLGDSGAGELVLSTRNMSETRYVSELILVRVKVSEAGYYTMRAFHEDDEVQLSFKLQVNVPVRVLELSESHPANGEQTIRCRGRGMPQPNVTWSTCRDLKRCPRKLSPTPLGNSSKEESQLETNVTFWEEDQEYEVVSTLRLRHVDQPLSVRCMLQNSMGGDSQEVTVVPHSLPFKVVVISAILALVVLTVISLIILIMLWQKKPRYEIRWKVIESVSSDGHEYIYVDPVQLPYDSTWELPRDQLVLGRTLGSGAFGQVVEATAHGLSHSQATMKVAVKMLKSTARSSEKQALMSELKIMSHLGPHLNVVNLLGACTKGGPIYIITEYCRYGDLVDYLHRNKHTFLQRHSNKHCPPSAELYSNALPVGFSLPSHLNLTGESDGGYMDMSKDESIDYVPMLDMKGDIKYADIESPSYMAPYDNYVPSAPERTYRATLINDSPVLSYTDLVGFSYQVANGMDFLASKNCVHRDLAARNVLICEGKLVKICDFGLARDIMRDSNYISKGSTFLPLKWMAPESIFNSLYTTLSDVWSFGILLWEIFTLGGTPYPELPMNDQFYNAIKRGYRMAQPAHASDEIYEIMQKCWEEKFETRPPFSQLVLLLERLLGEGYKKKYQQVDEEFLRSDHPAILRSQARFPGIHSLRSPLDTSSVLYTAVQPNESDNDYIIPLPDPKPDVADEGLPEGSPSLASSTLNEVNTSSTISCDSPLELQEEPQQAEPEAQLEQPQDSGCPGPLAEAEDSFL

T2 sequence (Q06187 whole entry): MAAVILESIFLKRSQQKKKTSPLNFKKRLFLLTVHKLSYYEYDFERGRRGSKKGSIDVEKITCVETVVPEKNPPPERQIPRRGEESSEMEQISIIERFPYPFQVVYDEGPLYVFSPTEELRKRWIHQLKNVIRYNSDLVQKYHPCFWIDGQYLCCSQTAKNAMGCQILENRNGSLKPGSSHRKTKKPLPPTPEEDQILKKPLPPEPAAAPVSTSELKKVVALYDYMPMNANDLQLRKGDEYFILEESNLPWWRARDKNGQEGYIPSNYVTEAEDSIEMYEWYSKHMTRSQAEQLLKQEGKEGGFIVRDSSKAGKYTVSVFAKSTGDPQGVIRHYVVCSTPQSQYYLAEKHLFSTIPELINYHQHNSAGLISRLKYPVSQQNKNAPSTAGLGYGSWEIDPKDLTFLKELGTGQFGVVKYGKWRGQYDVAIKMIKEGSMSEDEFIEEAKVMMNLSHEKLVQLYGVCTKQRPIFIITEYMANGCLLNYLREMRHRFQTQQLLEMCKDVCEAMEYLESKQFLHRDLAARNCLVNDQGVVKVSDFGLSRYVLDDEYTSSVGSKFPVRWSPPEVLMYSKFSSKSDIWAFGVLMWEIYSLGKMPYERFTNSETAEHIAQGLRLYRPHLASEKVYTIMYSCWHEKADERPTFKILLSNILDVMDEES
Chain of Serine/threonine-protein kinase Chk2 (Homo sapiens) (O96017 whole entry): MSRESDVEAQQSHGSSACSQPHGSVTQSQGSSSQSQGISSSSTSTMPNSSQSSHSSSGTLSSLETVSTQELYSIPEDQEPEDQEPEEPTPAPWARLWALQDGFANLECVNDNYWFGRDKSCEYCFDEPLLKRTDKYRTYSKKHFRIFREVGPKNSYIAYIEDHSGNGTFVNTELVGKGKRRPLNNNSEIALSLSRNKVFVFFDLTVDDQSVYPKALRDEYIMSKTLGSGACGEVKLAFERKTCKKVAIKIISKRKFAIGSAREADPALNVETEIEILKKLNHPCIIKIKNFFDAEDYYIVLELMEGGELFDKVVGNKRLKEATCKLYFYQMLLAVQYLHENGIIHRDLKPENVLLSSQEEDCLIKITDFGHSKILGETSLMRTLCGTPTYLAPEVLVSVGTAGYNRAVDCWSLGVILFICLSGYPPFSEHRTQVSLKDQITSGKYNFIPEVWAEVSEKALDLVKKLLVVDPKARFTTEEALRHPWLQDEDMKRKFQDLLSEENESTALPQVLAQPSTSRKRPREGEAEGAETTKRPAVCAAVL
Chain of Casein kinase II subunit alpha' (Homo sapiens) (P19784 whole entry, looked up): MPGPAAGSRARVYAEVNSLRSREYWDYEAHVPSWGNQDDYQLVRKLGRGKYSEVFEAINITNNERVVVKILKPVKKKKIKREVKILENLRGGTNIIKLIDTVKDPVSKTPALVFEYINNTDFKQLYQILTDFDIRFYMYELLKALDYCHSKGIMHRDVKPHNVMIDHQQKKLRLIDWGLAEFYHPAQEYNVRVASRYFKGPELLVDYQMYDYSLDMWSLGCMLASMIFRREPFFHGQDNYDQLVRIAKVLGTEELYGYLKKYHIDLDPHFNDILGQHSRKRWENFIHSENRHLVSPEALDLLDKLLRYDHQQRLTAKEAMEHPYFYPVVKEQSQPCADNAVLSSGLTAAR
Chain of RAC-alpha serine/threonine-protein kinase (Homo sapiens) (P31749 whole entry): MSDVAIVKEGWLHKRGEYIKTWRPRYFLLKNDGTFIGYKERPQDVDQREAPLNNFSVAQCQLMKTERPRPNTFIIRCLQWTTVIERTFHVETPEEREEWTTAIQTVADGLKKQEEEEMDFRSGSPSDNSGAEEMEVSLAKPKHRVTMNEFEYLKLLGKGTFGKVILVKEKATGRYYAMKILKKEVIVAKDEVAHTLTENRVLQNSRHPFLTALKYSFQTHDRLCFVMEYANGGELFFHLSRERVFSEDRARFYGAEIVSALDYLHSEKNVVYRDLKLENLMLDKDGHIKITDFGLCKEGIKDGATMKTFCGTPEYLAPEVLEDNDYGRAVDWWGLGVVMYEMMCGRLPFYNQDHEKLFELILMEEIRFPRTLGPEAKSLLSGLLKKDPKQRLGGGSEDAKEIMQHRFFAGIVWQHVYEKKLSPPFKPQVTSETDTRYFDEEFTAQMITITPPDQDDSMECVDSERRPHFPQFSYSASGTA

With `O=C1c2c(O)ccc(O)c2C(=O)c2c(NCCNCCO)ccc(NCCNCCO)c21` as the molecule, how does the Activity [1] read?
The Activity was 59.7%.

What about the Activity (MV4-11 [2]) of the same molecule?
Its Activity is “inactive”.

And the inhibition [3]?
The inhibition was “Active”.

What about the Activity [4] of the same molecule?
Its Activity is 109%.

What about the inhibition [5] of the same molecule?
Its inhibition is “Dose-dependent effect”.

And the Activity [6]?
Its Activity is 45.9%.

And the Activity [7]?
The Activity was 0.86%.

What about the Activity [8] of the same molecule?
Its Activity is 81.8%.

What about the inhibition [9] of the same molecule?
The inhibition was “Dose-dependent effect”.

What about the Activity (MV4-11 [10]) of the same molecule?
The Activity was “inactive”.

And the inhibition [11]?
The inhibition was “Active”.

With `O=C1c2c(O)ccc(O)c2C(=O)c2c(NCCNCCO)ccc(NCCNCCO)c21` [MITOXANTRONE HYDROCHLORIDE] as the molecule, how does the pIC50 [12] read?
Its pIC50 is 7.29.

With `O=C1c2c(O)ccc(O)c2C(=O)c2c(NCCNCCO)ccc(NCCNCCO)c21` [MITOXANTRONE] as the molecule, how does the pIC50 [13] read?
Its pIC50 is 6.00.

And the IC50 (Casein kinase 2)?
The IC50 was 660 nM.

What about the pIC50 [14] of the same molecule?
Its pIC50 is 6.10.

With `CNC(=O)c1cc(Oc2ccc(NC(=O)Nc3ccc(Cl)c(C(F)(F)F)c3)cc2)ccn1` [SORAFENIB] as the molecule, how does the pIC50 [15] read?
Its pIC50 is > 7.00.
